Results on 28 molecules are retold here after patent US20240279207A1, “SUBSTITUTED ACYL SULFONAMIDES FOR TREATING CANCER” (The Broad Institute, Inc., priority 2020, published 2024).

The target in experiment [1] is T1, Recombinant human His-tagged Kat6a protein (amino acids 194-810) (Homo sapiens, UniProt Q92794).
T1 construct: Kat6a protein (amino acids 194-810); His
Briefly: Kat6a activity assay (TR-FRET, acetylation of Histone-H4-derived peptide). Format: biochemical. To be noted: 60 mins at 22° C., 220 nM H4 peptide, 600 nM Acetyl Coenzyme A, read-out: KAT6A - DPF/HAT domain IC50 [mol/l] (arithmetic mean). (In general: Time-resolved FRET reads energy transfer from a long-lived donor to a nearby acceptor.)

The subject of experiment [2] is ESR1 transcription in MVLN cells. Briefly: MVLN reporter assay: repression of ESR1 transcription (luciferase signal). To be noted: Homo sapiens, MVLN, 24 h, luciferase signal after 24 h, read-out: MVLN reporter assay, IC50 [M] (arithmetic mean). It is filed as cell-based. The essentials:
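MVLN cells, expressing ER and stably carrying a vitellogenin A2 ERE-luciferase reporter, treated with compound in duplicate; luciferase read after 24 h with Steadylite plus. Cell density checked in parallel by Alamar Blue fluorescence (530/590 nm, 2 h) before the luciferase read.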
A general note: Reporter assays use an easily measured gene product as a stand-in for the process of interest.

SMILES strings stand for the structures.

T1 sequence (Q92794 194-810): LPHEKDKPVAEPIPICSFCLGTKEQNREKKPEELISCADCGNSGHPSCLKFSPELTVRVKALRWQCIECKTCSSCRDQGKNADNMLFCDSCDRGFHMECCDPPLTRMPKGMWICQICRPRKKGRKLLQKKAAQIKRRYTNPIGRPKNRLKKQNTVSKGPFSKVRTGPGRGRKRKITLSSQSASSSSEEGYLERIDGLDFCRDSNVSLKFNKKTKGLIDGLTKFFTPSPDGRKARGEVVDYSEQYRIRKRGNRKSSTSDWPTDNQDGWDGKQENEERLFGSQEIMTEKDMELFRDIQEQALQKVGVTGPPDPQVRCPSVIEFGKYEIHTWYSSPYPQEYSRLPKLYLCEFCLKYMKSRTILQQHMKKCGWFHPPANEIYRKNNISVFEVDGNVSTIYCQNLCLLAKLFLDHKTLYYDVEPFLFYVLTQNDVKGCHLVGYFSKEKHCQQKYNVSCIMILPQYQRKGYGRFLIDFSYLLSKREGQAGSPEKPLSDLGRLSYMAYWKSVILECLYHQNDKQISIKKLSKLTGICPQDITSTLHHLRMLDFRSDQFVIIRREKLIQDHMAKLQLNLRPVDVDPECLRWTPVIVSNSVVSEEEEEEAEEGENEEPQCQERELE

Regarding `CCc1noc(-c2ccccc2S(=O)(=O)NC(=O)c2cc3c(F)cc(N4CCC4)cc3o2)n1` [Example 44, 6-(Azetidin-1-yl)-N-[2-(3-ethyl-1,2,4-oxadiazol-5-yl)benzene-1-sulfonyl]-4-fluoro-1-benzofuran-2-carboxamide], the IC50 in experiment [1] came to 0.189 µM; in experiment [2] it was 1.01e-06 M.

`CCOc1cc(F)ccc1S(=O)(=O)NC(=O)c1cc2c(F)cc(N3CCC3)cc2o1` [Example 208, 6-(Azetidin-1-yl)-N-(2-ethoxy-4-fluoro-phenyl)sulfonyl-4-fluoro-benzofuran-2-carboxamide]: the IC50 is 0.0454 µM in experiment [1] and 7.78e-08 M in experiment [2].

On to `CC(C)N(C)c1cc(F)c(S(=O)(=O)NC(=O)c2cc3c(F)cc(N4CC(F)C4)cc3o2)c(F)c1` [Example 164, N-{2,6-difluoro-4-[methyl(propan-2-yl)amino]benzene-1-sulfonyl}-4-fluoro-6-(3-fluoroazetidin-1-yl)-1-benzofuran-2-carboxamide], for which the IC50 in experiment [1] came out at 0.251 µM; in experiment [2], 2.34e-06 M.

On to `CCCOc1cccc(OC(C)(C)C)c1S(=O)(=O)NC(=O)c1cc2c(F)cc(N3CCC3)cc2o1` [Example 83, 6-(Azetidin-1-yl)-N-(2-tert-butoxy-6-propoxybenzene-1-sulfonyl)-4-fluoro-1-benzofuran-2-carboxamide], for which the IC50 is 0.0267 µM in experiment [1] and 2.85e-07 M in experiment [2].

Take `CCOc1ccccc1S(=O)(=O)NC(=O)c1cc2ccc(N3CC(C(F)(F)F)C3)cc2o1` [Example 117, N-(2-Ethoxybenzene-1-sulfonyl)-6-[3-(trifluoromethyl)azetidin-1-yl]-1-benzofuran-2-carboxamide]: the IC50 is 12.9 µM in experiment [1] and 1.73e-05 M in experiment [2].

For `Cc1cc(Nc2ccccc2S(=O)(=O)NC(=O)c2cc3c(F)cc(N4CCC4)cc3o2)n(-c2ccccc2)n1` [Example 70, 6-(Azetidin-1-yl)-4-fluoro-N-{2-[(3-methyl-1-phenyl-1H-pyrazol-5-yl)amino]benzene-1-sulfonyl}-1-benzofuran-2-carboxamide], the results for the IC50 in experiment [1] and in experiment [2] were 0.494 µM and 1.58e-05 M, respectively.

Take `CN(C)C(=O)c1cccnc1S(=O)(=O)NC(=O)c1cc2c(F)cc(N3CCC3)cc2o1` [Example 95, 2-{[6-(Azetidin-1-yl)-4-fluoro-1-benzofuran-2-carbonyl]sulfamoyl}-N,N-dimethylpyridine-3-carboxamide]: the IC50 in experiment [1] is 1.52 µM; in experiment [2], above 2e-05 M.

Regarding `O=C(NS(=O)(=O)c1cccc2c1NCCC2)c1cc2c(F)cc(N3CC(F)C3)cc2o1` [Example 110, 4-Fluoro-6-(3-fluoroazetidin-1-yl)-N-(1,2,3,4-tetrahydroquinoline-8-sulfonyl)-1-benzofuran-2-carboxamide], the IC50 in experiment [1] came out at 0.208 µM; in experiment [2], 5.47e-07 M.

As for `COc1ccc(S(=O)(=O)NC(=O)c2cc3c(F)cc(N4CCC4)cc3o2)c2c1CCCC2` [Example 180, 6-(Azetidin-1-yl)-4-fluoro-N-(4-methoxy-5,6,7,8-tetrahydronaphthalene-1-sulfonyl)-1-benzofuran-2-carboxamide], the IC50 in experiment [1] was found to be 0.0359 µM; in experiment [2], 6.28e-07 M.

As for `COCc1cccc(S(=O)(=O)NC(=O)c2cc3c(F)cc(N4CCC4)cc3o2)c1` [Example 48, 6-(Azetidin-1-yl)-4-fluoro-N-[3-(methoxymethyl)benzene-1-sulfonyl]-1-benzofuran-2-carboxamide], the IC50 in experiment [1] turned out to be 0.281 µM; in experiment [2], 1.29e-06 M.

With `CC(C)c1ccc(OC2CCC2)c(S(=O)(=O)NC(=O)c2cc3c(F)cc(N4CCC4)cc3o2)c1` [Example 230, 6-(Azetidin-1-yl)-N-[(2-cyclobutoxy-5-isopropylphenyl)sulfonyl]-4-fluorobenzofuran-2-carboxamide], the values for the IC50 in experiment [1] and in experiment [2] were 0.00771 µM and 8.72e-08 M, respectively.

For the molecule `CC(C)OC(=O)c1ccccc1S(=O)(=O)NC(=O)c1cc2c(F)cc(N3CCC3)cc2o1` [Example 101, Propan-2-yl 2-{[6-(azetidin-1-yl)-4-fluoro-1-benzofuran-2-carbonyl]sulfamoyl}benzoate], the figures for the IC50 in experiment [1] and in experiment [2] were 0.121 µM and 1.94e-06 M, respectively.

On to `O=C(NS(=O)(=O)c1c[nH]c2ccccc12)c1cc2c(F)cc(N3CCC3)cc2o1` [Example 176, 6-(Azetidin-1-yl)-4-fluoro-N-(1H-indole-3-sulfonyl)-1-benzofuran-2-carboxamide], for which the IC50 in experiment [1] worked out at 0.0268 µM; in experiment [2] it was 1.88e-07 M.

Turning to `CCc1cccc(OCC2CC2)c1S(=O)(=O)NC(=O)c1cc2c(F)cc(N3CCC3)cc2o1` [Example 33, 6-(Azetidin-1-yl)-N-[2-(cyclopropylmethoxy)-6-ethylbenzene-1-sulfonyl]-4-fluoro-1-benzofuran-2-carboxamide], the IC50 in experiment [1] came out at 0.0735 µM; in experiment [2], 5.37e-07 M.

Take `CCOc1ccccc1S(=O)(=O)NC(=O)c1cc2c(F)cc(N3CC[C@@H]3C(N)=O)cc2o1` (racemic) [Example 169, 1-{2-[(2-Ethoxybenzene-1-sulfonyl)carbamoyl]-4-fluoro-1-benzofuran-6-yl}azetidine-2-carboxamide (rac)]: the IC50 was 4.07 µM in experiment [1] and above 2e-05 M in experiment [2].

Turning to `COc1c(S(=O)(=O)NC(=O)c2cc3c(F)cc(N4CCC4)cc3o2)ccc(Cl)c1Cl` [Example 183, 6-(Azetidin-1-yl)-N-(3,4-dichloro-2-methoxybenzene-1-sulfonyl)-4-fluoro-1-benzofuran-2-carboxamide], the IC50 worked out at 0.0828 µM in experiment [1] and 9.24e-07 M in experiment [2].

Take `COc1ccc(Br)cc1S(=O)(=O)NC(=O)c1cc2c(F)cc(N3CCC3)cc2o1` [Example 139, 6-(azetidin-1-yl)-N-(5-bromo-2-methoxybenzene-1-sulfonyl)-4-fluoro-1-benzofuran-2-carboxamide]: the IC50 worked out at 0.0413 µM in experiment [1] and 2.36e-07 M in experiment [2].

For `CCOc1ccc(OC(F)(F)F)cc1S(=O)(=O)NC(=O)c1cc2c(F)cc(N3CCC3)cc2o1` [Example 212, 6-(Azetidin-1-yl)-N-[2-ethoxy-5-(trifluoromethoxy)phenyl]sulfonyl-4-fluoro-benzofuran-2-carboxamide], the IC50 turned out to be 0.0364 µM in experiment [1] and 1.59e-07 M in experiment [2].

For the molecule `CC1Cc2cccc(S(=O)(=O)NC(=O)c3cc4c(F)cc(N5CCC5)cc4o3)c2O1` (centres unmarked) [Example 18, 6-(Azetidin-1-yl)-4-fluoro-N-[2-methyl-2,3-dihydro-1-benzofuran-7-sulfonyl]-1-benzofuran-2-carboxamide], the IC50 came out at 0.0242 µM in experiment [1] and 1.92e-07 M in experiment [2].

With `Cn1nc(S(=O)(=O)NC(=O)c2cc3c(F)cc(N4CCC4)cc3o2)c2ccc(C(F)(F)F)nc21` [Example 144, 6-(Azetidin-1-yl)-4-fluoro-N-[1-methyl-6-(trifluoromethyl)-1H-pyrazolo[3,4-b]pyridine-3-sulfonyl]-1-benzofuran-2-carboxamide], the IC50 in experiment [1] stood at 0.548 µM; in experiment [2], 7.93e-06 M.

`CC1(C)COc2ccc(S(=O)(=O)NC(=O)c3cc4c(F)cc(N5CCC5)cc4o3)cc21` [Example 190, 6-(Azetidin-1-yl)-N-(3,3-dimethyl-2,3-dihydro-1-benzofuran-5-sulfonyl)-4-fluoro-1-benzofuran-2-carboxamide]: the results for the IC50 in experiment [1] and in experiment [2] were 0.0729 µM and 1.93e-07 M, respectively.

In the case of `CC1(C)Cc2cccc(S(=O)(=O)NC(=O)c3cc4c(F)cc(N5CCC5)cc4o3)c2O1` [Example 21, 6-(Azetidin-1-yl)-N-(2,2-dimethyl-2,3-dihydro-1-benzofuran-7-sulfonyl)-4-fluoro-1-benzofuran-2-carboxamide], the IC50 was 0.0551 µM in experiment [1] and 2.98e-07 M in experiment [2].

Turning to `CCCOc1cccc(CCC)c1S(=O)(=O)NC(=O)c1cc2c(F)cc(N3CCC3)cc2o1` [Example 31, 6-(Azetidin-1-yl)-4-fluoro-N-(2-propoxy-6-propylbenzene-1-sulfonyl)-1-benzofuran-2-carboxamide], the IC50 was 0.0349 µM in experiment [1] and 5.02e-07 M in experiment [2].

`CC(Oc1ccccc1S(=O)(=O)NC(=O)c1cc2c(F)cc(N3CCC3)cc2o1)C(F)(F)F` (racemic) [Example 13, 6-(Azetidin-1-yl)-4-fluoro-N-(2-{[-1,1,1-trifluoropropan-2-yl]oxy}benzene-1-sulfonyl)-1-benzofuran-2-carboxamide (rac)]: the IC50 came out at 0.0189 µM in experiment [1] and 1.66e-07 M in experiment [2].

Consider `O=C(NS(=O)(=O)c1cccc2c1OC(F)(F)C(F)(F)O2)c1cc2c(F)cc(N3CC(F)C3)cc2o1` [Example 159, 4-Fluoro-6-(3-fluoroazetidin-1-yl)-N-(2,2,3,3-tetrafluoro-2,3-dihydro-1,4-benzodioxine-5-sulfonyl)-1-benzofuran-2-carboxamide], for which the results for the IC50 in experiment [1] and in experiment [2] were 0.0343 µM and 7.45e-07 M, respectively.

Turning to `CC(C)c1cc(Br)ccc1S(=O)(=O)NC(=O)c1cc2c(F)cc(N3CCC3)cc2o1` [Example 38, 6-(Azetidin-1-yl)-N-[4-bromo-2-(propan-2-yl)benzene-1-sulfonyl]-4-fluoro-1-benzofuran-2-carboxamide], the values for the IC50 in experiment [1] and in experiment [2] were 0.0855 µM and 7.07e-07 M, respectively.

For the molecule `O=C(NS(=O)(=O)c1cccc2nsnc12)c1cc2c(F)cc(N3CCC3)cc2o1` [Example 181, 6-(Azetidin-1-yl)-N-(2,1,3-benzothiadiazole-4-sulfonyl)-4-fluoro-1-benzofuran-2-carboxamide], the IC50 amounted to 0.0895 µM in experiment [1] and 6.47e-07 M in experiment [2].

For `Cc1ccc(S(=O)(=O)NC(=O)c2cc3c(F)cc(N4CCC4)cc3o2)c2ccccc12` [Example 87, 6-(azetidin-1-yl)-4-fluoro-N-(4-methylnaphthalene-1-sulfonyl)-1-benzofuran-2-carboxamide], the figures for the IC50 in experiment [1] and in experiment [2] were 0.0645 µM and 1.2e-06 M, respectively.
